According to article PMC5218480 (PLoS ONE, 2017):

Tested on: MV-4-11 cells
Assay: Gene expression microarray analysis (Affymetrix PrimeView) and GSEA
Assay type: cell-based, human
Parameters: RFU PODN (11730768_x_at) / Fold change /veh PODN (11730768_x_at) / RFU LINC00158 (11744669_a_at) / Fold change /veh LINC00158 (11744669_a_at) / RFU DUSP10 (11751237_a_at) / Fold change /veh DUSP10 (11751237_a_at) / RFU ID3 (11757404_x_at) / Fold change /veh ID3 (11757404_x_at) / RFU PLEKHG5 (11737974_s_at) / Fold change /veh PLEKHG5 (11737974_s_at) / RFU LRRC4B (11730491_at) / Fold change /veh LRRC4B (11730491_at) / RFU GIMAP4 (11747438_a_at) / Fold change /veh GIMAP4 (11747438_a_at) / RFU KRT8 (11758183_x_at) / Fold change /veh KRT8 (11758183_x_at) / RFU CNN1 (11734310_a_at) / Fold change /veh CNN1 (11734310_a_at) / RFU VPS37D (11726825_at) / Fold change /veh VPS37D (11726825_at) / RFU C10orf10 (11716522_x_at) / Fold change /veh C10orf10 (11716522_x_at) / RFU KIR2DL2 /// KIR2DL4 /// KIR2DL5A /// KIR2DL5B /// KIR2DS1 /// KIR2DS2 /// KIR2DS3 /// KIR2DS4 /// KIR3DL3 /// KIR3DL3 /// KIR3DS1 (11738374_at) / Fold change /veh KIR2DL2 /// KIR2DL4 /// KIR2DL5A /// KIR2DL5B /// KIR2DS1 /// KIR2DS2 /// KIR2DS3 /// KIR2DS4 /// KIR3DL3 /// KIR3DL3 /// KIR3DS1 (11738374_at) / RFU C1QL1 (11718748_at) / Fold change /veh C1QL1 (11718748_at) / RFU TMPRSS4 (11747572_a_at) / Fold change /veh TMPRSS4 (11747572_a_at) / RFU HAMP (11756126_x_at) / Fold change /veh HAMP (11756126_x_at) / RFU RNFT2 (11725882_a_at) / Fold change /veh RNFT2 (11725882_a_at) / RFU NR4A2 (11747474_a_at) / Fold change /veh NR4A2 (11747474_a_at) / RFU ABCC12 (11746883_a_at) / Fold change /veh ABCC12 (11746883_a_at) / RFU TMEM136 (11760407_x_at) / Fold change /veh TMEM136 (11760407_x_at) / RFU CLDN22 /// WWC2 (11732394_at) / Fold change /veh CLDN22 /// WWC2 (11732394_at) / RFU HLA-DPB1 (11760878_x_at) / Fold change /veh HLA-DPB1 (11760878_x_at) / RFU SPINT1 (11716480_a_at) / Fold change /veh SPINT1 (11716480_a_at) / RFU GAP43 (11754022_s_at) / Fold change /veh GAP43 (11754022_s_at) / RFU A4GNT (11735810_at) / Fold change /veh A4GNT (11735810_at) / RFU PRB3 (11715151_x_at) / Fold change /veh PRB3 (11715151_x_at) / RFU TUBB4B (11761932_at) / Fold change /veh TUBB4B (11761932_at) / RFU CAPN14 (11732068_a_at) / Fold change /veh CAPN14 (11732068_a_at) / RFU TMCC2 (11721928_a_at) / Fold change /veh TMCC2 (11721928_a_at) / RFU IRGQ (11745062_a_at) / Fold change /veh IRGQ (11745062_a_at) / RFU FAM174B (11720279_a_at) / Fold change /veh FAM174B (11720279_a_at) / RFU TMPRSS4 (11748680_a_at) / Fold change /veh TMPRSS4 (11748680_a_at) / RFU FAM212B (11763350_a_at) / Fold change /veh FAM212B (11763350_a_at) / RFU PLEKHG5 (11743358_a_at) / Fold change /veh PLEKHG5 (11743358_a_at) / RFU ZSCAN30 (11745921_a_at) / Fold change /veh ZSCAN30 (11745921_a_at) / RFU CMKLR1 (11741424_a_at) / Fold change /veh CMKLR1 (11741424_a_at) / RFU LOC101060620 /// MAPK8IP1 (11723275_at) / Fold change /veh LOC101060620 /// MAPK8IP1 (11723275_at) / RFU SPTSSB (11747773_x_at) / Fold change /veh SPTSSB (11747773_x_at) / RFU PRSS12 (11739890_at) / Fold change /veh PRSS12 (11739890_at) / RFU BIN1 (11741810_x_at) / Fold change /veh BIN1 (11741810_x_at) / RFU WNT11 (11732464_a_at) / Fold change /veh WNT11 (11732464_a_at) / RFU C10orf10 (11716521_a_at) / Fold change /veh C10orf10 (11716521_a_at) / RFU C5orf56 (11738089_at) / Fold change /veh C5orf56 (11738089_at) / RFU CYB561 (11721691_x_at) / Fold change /veh CYB561 (11721691_x_at) / RFU ANKRD19P (11752326_a_at) / Fold change /veh ANKRD19P (11752326_a_at) / RFU OR2T12 /// OR2T33 /// OR2T8 (11738714_s_at) / Fold change /veh OR2T12 /// OR2T33 /// OR2T8 (11738714_s_at) / RFU VCAN (11748164_a_at) / Fold change /veh VCAN (11748164_a_at) / RFU JSRP1 (11732532_at) / Fold change /veh JSRP1 (11732532_at) / RFU KRTAP10-11 (11738290_x_at) / Fold change /veh KRTAP10-11 (11738290_x_at) / RFU MYO3A (11730013_a_at) / Fold change /veh MYO3A (11730013_a_at) / RFU EBF3 (11725865_a_at) / Fold change /veh EBF3 (11725865_a_at) / RFU CAMK2N1 (11719241_x_at) / Fold change /veh CAMK2N1 (11719241_x_at) / RFU C5orf56 (11738088_a_at) / Fold change /veh C5orf56 (11738088_a_at) / RFU OLFML3 (11715873_a_at) / Fold change /veh OLFML3 (11715873_a_at) / RFU LOC100653217 /// NTM (11731650_a_at) / Fold change /veh LOC100653217 /// NTM (11731650_a_at) / RFU MAPK11 (11762145_a_at) / Fold change /veh MAPK11 (11762145_a_at) / RFU FIZ1 (11724087_x_at) / Fold change /veh FIZ1 (11724087_x_at) / RFU OASL (11726364_x_at) / Fold change /veh OASL (11726364_x_at) / RFU SOX15 (11748057_x_at) / Fold change /veh SOX15 (11748057_x_at) / RFU CD79A (11719716_a_at) / Fold change /veh CD79A (11719716_a_at) / RFU HIST1H1D (11736915_at) / Fold change /veh HIST1H1D (11736915_at) / RFU CASKIN2 (11723855_a_at) / Fold change /veh CASKIN2 (11723855_a_at) / RFU LOC730098 (11760151_x_at) / Fold change /veh LOC730098 (11760151_x_at) / RFU OR4N2 (11742367_at) / Fold change /veh OR4N2 (11742367_at) / RFU PRRT2 (11749266_a_at) / Fold change /veh PRRT2 (11749266_a_at) / RFU SNX32 (11753110_a_at) / Fold change /veh SNX32 (11753110_a_at) / RFU CDHR5 (11726645_a_at) / Fold change /veh CDHR5 (11726645_a_at) / RFU RCAN1 (11760418_a_at) / Fold change /veh RCAN1 (11760418_a_at) / RFU FAM167A (11723789_a_at) / Fold change /veh FAM167A (11723789_a_at) / RFU FAM26E (11764081_at) / Fold change /veh FAM26E (11764081_at) / RFU ISYNA1 (11749810_s_at) / Fold change /veh ISYNA1 (11749810_s_at) / RFU ACY1 (11761880_at) / Fold change /veh ACY1 (11761880_at) / RFU 11764098_at / Fold change /veh 11764098_at / RFU SAMD14 (11745864_x_at) / Fold change /veh SAMD14 (11745864_x_at) / RFU NPB (11741838_a_at) / Fold change /veh NPB (11741838_a_at) / RFU TMPRSS6 (11731388_a_at) / Fold change /veh TMPRSS6 (11731388_a_at) / RFU KRTAP10-2 (11738614_at) / Fold change /veh KRTAP10-2 (11738614_at) / RFU ARHGAP8 /// PRR5-ARHGAP8 (11727945_x_at) / Fold change /veh ARHGAP8 /// PRR5-ARHGAP8 (11727945_x_at) / RFU KRTAP5-7 /// NADSYN1 (11734609_at) / Fold change /veh KRTAP5-7 /// NADSYN1 (11734609_at) / RFU RASL12 (11751679_a_at) / Fold change /veh RASL12 (11751679_a_at) / RFU CDKN2B (11736163_a_at) / Fold change /veh CDKN2B (11736163_a_at) / RFU PRF1 (11729649_at) / Fold change /veh PRF1 (11729649_at) / RFU, ZNF638 /// ZNF638-IT1 / Fold change vs veh, ZNF638 /// ZNF638-IT1 / RFU, PANK3 / Fold change vs veh, PANK3 / RFU, SH3YL1 / Fold change vs veh, SH3YL1 / RFU, ZEB2 / Fold change vs veh, ZEB2 / RFU, NRIP1 / Fold change vs veh, NRIP1 / RFU, PTTG1IP / Fold change vs veh, PTTG1IP / RFU, CAPN2 / Fold change vs veh, CAPN2 / RFU, MED14 / Fold change vs veh, MED14 / RFU, SNORA58 / Fold change vs veh, SNORA58 / RFU, C1orf63 / Fold change vs veh, C1orf63 / RFU, LRRFIP1 / Fold change vs veh, LRRFIP1 / RFU, NDUFAF7 / Fold change vs veh, NDUFAF7 / RFU, SLC12A2 / Fold change vs veh, SLC12A2 / RFU, IBTK / Fold change vs veh, IBTK / RFU, ESF1 / Fold change vs veh, ESF1 / Fold change vs veh, TMEM50B / RFU, TAOK1 / Fold change vs veh, TAOK1 / RFU, ACBD3 / Fold change vs veh, ACBD3 / RFU, TMA16 / Fold change vs veh, TMA16 / RFU, RWDD3 / Fold change vs veh, RWDD3 / RFU, BCAT1 / Fold change vs veh, BCAT1 / RFU, EDEM3 / Fold change vs veh, EDEM3 / RFU, TMEM33 / Fold change vs veh, TMEM33 / RFU, WDR75 / Fold change vs veh, WDR75 / RFU, AHCTF1 / Fold change vs veh, AHCTF1 / RFU, TFRC / Fold change vs veh, TFRC / RFU, ZDHHC17 / Fold change vs veh, ZDHHC17 / RFU, NOM1 / Fold change vs veh, NOM1 / RFU, ARL8B / Fold change vs veh, ARL8B / RFU, ZBTB11 / Fold change vs veh, ZBTB11 / RFU, TAMM41 / Fold change vs veh, TAMM41 / RFU, KIAA1704 /// LOC100996395 / Fold change vs veh, KIAA1704 /// LOC100996395 / RFU, ING1 / Fold change vs veh, ING1 / RFU, TRMT61B / Fold change vs veh, TRMT61B / RFU, FUBP3 / Fold change vs veh, FUBP3 / RFU, TP53 / Fold change vs veh, TP53 / RFU, TNKS2 / Fold change vs veh, TNKS2 / RFU, ZFP14 / Fold change vs veh, ZFP14 / RFU, ACTR2 / Fold change vs veh, ACTR2 / RFU, PPP3R1 / Fold change vs veh, PPP3R1 / RFU, PIK3R1 / Fold change vs veh, PIK3R1 / RFU, HNRNPA1 / Fold change vs veh, HNRNPA1 / RFU, RNF170 / Fold change vs veh, RNF170 / RFU, ZNF28 / Fold change vs veh, ZNF28 / RFU, RNGTT / Fold change vs veh, RNGTT / RFU, OGT / Fold change vs veh, OGT / RFU, BRD1 / Fold change vs veh, BRD1 / RFU, MARS / Fold change vs veh, MARS / RFU, ZNF655 / Fold change vs veh, ZNF655 / RFU, FAHD1 / Fold change vs veh, FAHD1 / RFU, BDP1 / Fold change vs veh, BDP1 / RFU, LRRCC1 / Fold change vs veh, LRRCC1 / RFU, ARID1A / Fold change vs veh, ARID1A / RFU, ZNF146 / Fold change vs veh, ZNF146 / RFU, ZNF330 / Fold change vs veh, ZNF330 / RFU, GPN3 / Fold change vs veh, GPN3 / RFU, C9orf123 / Fold change vs veh, C9orf123 / RFU, N4BP2L2 / Fold change vs veh, N4BP2L2 / RFU, ARFIP1 / Fold change vs veh, ARFIP1 / RFU, FAM179B / Fold change vs veh, FAM179B / RFU, BCL10 / Fold change vs veh, BCL10 / RFU, UHRF1BP1L / Fold change vs veh, UHRF1BP1L / RFU, BET1 / Fold change vs veh, BET1 / RFU, CNOT2 / Fold change vs veh, CNOT2 / RFU, ZNF268 / Fold change vs veh, ZNF268 / Fold change vs veh, ZNF507 / RFU, DGCR2 / Fold change vs veh, DGCR2 / RFU, WDSUB1 / Fold change vs veh, WDSUB1 / Fold change vs veh, HSP90B1 /// MIR3652 / RFU, ADSS / Fold change vs veh, ADSS / RFU, GK / Fold change vs veh, GK / RFU, ZNF148 / Fold change vs veh, ZNF148 / RFU, TAF9 / Fold change vs veh, TAF9 / RFU, SLC1A5 / Fold change vs veh, SLC1A5 / RFU, SLMO2 / Fold change vs veh, SLMO2 / RFU, ABCC4 / Fold change vs veh, ABCC4 / RFU, LOC101060439 /// RAP1B / Fold change vs veh, LOC101060439 /// RAP1B / RFU, RFX7 / Fold change vs veh, RFX7 / RFU, GTPBP10 / Fold change vs veh, GTPBP10 / RFU, CNEP1R1 / Fold change vs veh, CNEP1R1 / RFU, BIVM-ERCC5 /// ERCC5 / Fold change vs veh, BIVM-ERCC5 /// ERCC5 / RFU, ILF3 / Fold change vs veh, ILF3 / RFU 11762660_at / Fold change /veh 11762660_at / RFU VCAN (11757783_s_at) / Fold change /veh VCAN (11757783_s_at) / RFU DDX43 (11728927_at) / Fold change /veh DDX43 (11728927_at) / RFU KRT8 (11758188_x_at) / Fold change /veh KRT8 (11758188_x_at) / RFU NKD1 (11759106_at) / Fold change /veh NKD1 (11759106_at) / RFU SRD5A1 (11742802_a_at) / Fold change /veh SRD5A1 (11742802_a_at) / RFU TPSAB1 /// TPSB2 (11721975_s_at) / Fold change /veh TPSAB1 /// TPSB2 (11721975_s_at) / RFU GSTM3 (11746129_a_at) / Fold change /veh GSTM3 (11746129_a_at) / RFU IL23R (11737362_x_at) / Fold change /veh IL23R (11737362_x_at) / RFU TMEM51 (11727254_a_at) / Fold change /veh TMEM51 (11727254_a_at) / RFU PIWIL2 (11732686_x_at) / Fold change /veh PIWIL2 (11732686_x_at) / RFU ORM1 (11744905_x_at) / Fold change /veh ORM1 (11744905_x_at) / RFU CCDC152 (11743942_at) / Fold change /veh CCDC152 (11743942_at) / RFU ECM1 (11717891_a_at) / Fold change /veh ECM1 (11717891_a_at) / RFU IL23R (11748794_a_at) / Fold change /veh IL23R (11748794_a_at) / RFU TNFAIP8L3 (11732012_x_at) / Fold change /veh TNFAIP8L3 (11732012_x_at) / RFU MBOAT4 (11741988_at) / Fold change /veh MBOAT4 (11741988_at) / RFU 11764193_at / Fold change /veh 11764193_at / RFU TMEM53 (11763286_at) / Fold change /veh TMEM53 (11763286_at) / RFU MAGEB2 (11727129_at) / Fold change /veh MAGEB2 (11727129_at) / RFU TMEM200A (11744735_a_at) / Fold change /veh TMEM200A (11744735_a_at) / RFU CCDC152 (11751479_a_at) / Fold change /veh CCDC152 (11751479_a_at) / RFU FAM211A (11726209_a_at) / Fold change /veh FAM211A (11726209_a_at) / RFU RGS16 (11746705_a_at) / Fold change /veh RGS16 (11746705_a_at) / RFU VCAN (11755009_s_at) / Fold change /veh VCAN (11755009_s_at) / RFU RHOB (11743442_s_at) / Fold change /veh RHOB (11743442_s_at) / RFU RGS16 (11720943_a_at) / Fold change /veh RGS16 (11720943_a_at) / RFU RGS16 (11720944_at) / Fold change /veh RGS16 (11720944_at) / RFU, VPS4B / Fold change vs veh, VPS4B / RFU, CREB1 / Fold change vs veh, CREB1 / RFU, DNAJC13 / Fold change vs veh, DNAJC13 / RFU, GNAQ / Fold change vs veh, GNAQ / RFU, CDK5R1 / Fold change vs veh, CDK5R1 / RFU, ZRANB3 / Fold change vs veh, ZRANB3 / RFU, CUL4A / Fold change vs veh, CUL4A / RFU, CCNY / Fold change vs veh, CCNY / RFU, UFL1 / Fold change vs veh, UFL1 / RFU, COG3 / Fold change vs veh, COG3 / RFU, DIAPH2 / Fold change vs veh, DIAPH2 / RFU, SKA2 / Fold change vs veh, SKA2 / RFU, AFF3 / Fold change vs veh, AFF3 / RFU, LMF1 / Fold change vs veh, LMF1 / RFU, IPO11 / Fold change vs veh, IPO11 / RFU, DFFB / Fold change vs veh, DFFB / RFU, FOXP1 / Fold change vs veh, FOXP1 / RFU, CARD8 / Fold change vs veh, CARD8 / RFU, STRN3 / Fold change vs veh, STRN3 / RFU, ADK / Fold change vs veh, ADK / RFU, RASSF2 / Fold change vs veh, RASSF2 / RFU, WIPF1 / Fold change vs veh, WIPF1 / RFU, LARP1B / Fold change vs veh, LARP1B / RFU, RASA1 / Fold change vs veh, RASA1 / RFU, RB1 / Fold change vs veh, RB1 / RFU, PPFIA1 / Fold change vs veh, PPFIA1 / RFU, MAT2A / Fold change vs veh, MAT2A / RFU, CCT5 / Fold change vs veh, CCT5 / RFU, WDR92 / Fold change vs veh, WDR92 / RFU, CUX1 / Fold change vs veh, CUX1 / RFU, TTC7A / Fold change vs veh, TTC7A / RFU, TMEM135 / Fold change vs veh, TMEM135 / RFU, DEPTOR / Fold change vs veh, DEPTOR / RFU, CPM / Fold change vs veh, CPM / RFU, DNAJB6 / Fold change vs veh, DNAJB6 / RFU, CACNA2D3 / Fold change vs veh, CACNA2D3 / RFU, DTX4 / Fold change vs veh, DTX4 / RFU, TFCP2 / Fold change vs veh, TFCP2 / RFU, GMCL1 /// GMCL1P1 / Fold change vs veh, GMCL1 /// GMCL1P1 / RFU, AEBP2 / Fold change vs veh, AEBP2 / RFU, SNHG1 /// SNORD22 /// SNORD25 /// SNORD26 /// SNORD27 /// SNORD28 /// SNORD29 /// SNORD31 / Fold change vs veh, SNHG1 /// SNORD22 /// SNORD25 /// SNORD26 /// SNORD27 /// SNORD28 /// SNORD29 /// SNORD31 / Fold change (Aza/veh), C12orf56 (ProbeSet 11735607_a_at) / Fold change (ACY-1035/veh), C12orf56 (ProbeSet 11735607_a_at) / Fold change (Aza/veh), FGFR1OP (ProbeSet 11751329_s_at) / Fold change (ACY-1035/veh), FGFR1OP (ProbeSet 11751329_s_at) / Fold change (Aza/veh), VPS36 (ProbeSet 11739960_a_at) / Fold change (ACY-1035/veh), VPS36 (ProbeSet 11739960_a_at) / RFU SYPL1 (11715823_x_at) / Fold change /veh SYPL1 (11715823_x_at) / RFU IGFBP7 (11715501_s_at) / Fold change /veh IGFBP7 (11715501_s_at) / RFU REEP3 (11722064_at) / Fold change /veh REEP3 (11722064_at) / RFU IGLL1 (11728026_x_at) / Fold change /veh IGLL1 (11728026_x_at): dose or concentration left out as unconfirmed
Settings: ProbeSet 11719493_s_at; LIST B

`Nc1ncn([C@@H]2O[C@H](CO)[C@@H](O)[C@H]2O)c(=O)n1` [azacitidine] was tested, and the “Fold change vs veh, TAF9” value was 1.00.
